From patent US20230414571A1, “APPLICATION OF SMALL-MOLECULE COMPOUND IN PREPARATION OF ANTITUMOR DRUG” (SOOCHOW UNIVERSITY, priority 2021, published 2023)

What was measured:
U87 glioma cells = experiment: Targeted metabonomics analysis of U87 cells; type: cell-based
Procedure: 1×10^7 cells (a sample cell number) were collected, and the cell supernatant was removed by means of centrifugation (1000×g, 1 minute) after quenching with a newly prepared quencher. The cells were resuspended with 100 μL of ultrapure water and mixed well. After 800 μL of cold methanol:acetonitrile (1:1, v/v) was added, the uniformly mixed cell samples were subjected to ultrasonic treatment in an ice bath for 30 minutes. The mixture was stored at −20° C. for 1 h to precipitate the protein. After centrifugation at 4° C. (14000×g, 20 minutes), the supernatant was collected, lyophilized, stored at −80° C., and then analyzed by means of […].
The lyophilized samples were resuspended in a solution (acetonitrile:water, 1:1, v/v, 100 μL) and then centrifuged at 4° C. (14000×g, 10 minutes). The supernatant (100 μL) was collected and diluted with an acetonitrile solution (100 μL), and a […] sample was loaded at 4° C. by using an Agilent 1290 Infinity liquid chromatography (LC) system (Agilent Technologies, Beijing, China) and a 5500 QTRAP mass spectrometer (Toronto of Canada, AB Sciex). At ACQUITY-UPLC-BEH column (1.7 μm, 2.1 mm×150 mm, Waters Technology (Shanghai) Co., Ltd.), chromatographic separation was performed at a flow rate of 300 μL/min, where solvent A (mobile phase) was a 15 mM ammonium acetate aqueous solution, and solvent B was acetonitrile. Chromatographic conditions of gradient elution were reduced from 90% B to 40% B, and were increased sharply from 40% B to 90% B after 18 minutes, a volume ratio of 90% B was kept for 4.9 minutes after 0.1 minute, and the duration of the whole process was 23 minutes. An equal volume of compounds was extracted from 32 actual samples so as to monitor the stability of the system, thereby being used for processing a quality control (QC) sample and put into a real sample. Mass spectrum experiments were performed in a negative ion and multi-reaction monitoring mode, and specific parameters were as follows: a source temperature of 450° C., an atomizer gas (GS1): 45, an auxiliary gas (GS2): 45, a curtain gas (CUR): 30, and an ion space voltage floating (ISVF): −4500 V.
Standard GC-MS data was processed by using analysis software (AB Sciex, Toronto, Canada), which included converting the original mass spectrum data to data containing m/z, measuring the corresponding ion intensity and retention time, and subsequent statistical analysis. Peak testing and calibration of all the samples were compared to their chemical standards (Sigma-Aldrich). […]
Statistical significance was tested by using t. *: P<0.05, **: P<0.01, and ***: P<0.005. […] The hexokinase (HK2 in cancer cells), which is the first one and serves as a rate-limiting enzyme in a glycolysis pathway was evaluated. […]

[1] = system: U87 cell transplantation tumor (brain glioma); experiment: MSI imaging of drug in brain tissue section (blood-brain barrier penetration); type: in vivo; conditions: MSI of brain tissue section with U87 glioma implant
Source text: FIG. 9 is an MSI image of a drug and a metabolite (compound 27: m/z 499, lactic acid: m/z 113) in a brain tissue section, where an optical micrograph of a serial section of H&E staining is used as a reference. The brain glioma and the lateral ventricle are represented by dashed lines, a color bar encodes signal strength of […] small molecules in […] (MSI), and the resolution is 10 μm.

U87MG tumor = U87MG tumor growth and survival in mice after various treatments; type: in vivo, nude mouse
Source text: In all different experimental groups (a and b in FIG. 10), the overall survival (OS) of mice treated with TMZ and compound 27 is the best. […] However, mouse death caused by glioma is reduced only 20 days […] treatment. After this period of time, the survival rates of the in-situ U87 heterogeneous tumor of the two single drug groups decreases rapidly due to malignant glioma.

[2] = system: cranial nerve glioma cell U87; experiment: Antiproliferative activity against cranial nerve glioma cell U87; type: cell-based; conditions: Homo sapiens, U-87 MG; U87 cells; read-out: concentration at which half of the tumor cells are killed
Source text: FIG. 14 is an antiproliferative activity test diagram of compound 8, compound 11, compound 13, and compound 21 against a cranial nerve glioma cell U87.

U87 cells = experiment: Flow cytometry analysis of U87 cell apoptosis (Annexin V-FITC/PI staining); type: cell-based; conditions: 20 μM, 24 hours
Procedure: In a dulbecco's modified eagle medium (DMEM), 5×10^5 U87 cells were inoculated into a 24-hole plate. After culturing for 24 hours, compound 27 (final concentration 20 μM) was directly added to a cell growth medium, incubated at 37° C. for 24 hours, briefly digested with trypsin, washed twice with cold PBS, centrifuged (2000 rpm, 5 min) and washed twice with cold PBS after a supernatant culture medium was discarded. The cells (1×10^5 cells/mL) were resuspended with a 400 μL of buffer solution (1×). 5 μL of Annexin V-FITC was added to the cell suspension and cultured at 4° C. for 15 minutes. Then, the cells were gently mixed with another dye propidium iodide (PI) (10 μL). The cells were collected for flow cytometry analysis. Data analysis was performed by using a CFLow Plus (Accuri Cytometers).
In order to further confirm the occurrence of apoptosis, the applicant tested the exposed phosphatidylserine by using an annexin V/propidium iodide double staining method, and observed a cell membrane damage phenomenon.

Structure (SMILES): CCOc1ccc(C(=O)NCCCN(C)CCCN(C)Cc2ccccc2)cc1Br [compound 27]
- glyceraldehyde-3-phosphate accumulation relative to control group processed by PBS (U87 glioma cells; U87 cells after treatment): approximately 3.5 times
- increase in concentration of thiamine pyrophosphate (TPP) (U87 glioma cells; U87 cells after treatment): ~2.5 times
- glyceride-3-phosphate change (U87 glioma cells; U87 cells after treatment, P<0.005): significantly reduced by nearly two orders of magnitude
- concentration of glucose-6-phosphate (U87 glioma cells; U87 cells, vs control group processed by PBS): lower than that of the control group
- capacity of penetrating a blood-brain barrier [1]: can break through the blood-brain barrier
- growth of solid tumors (U87MG tumor; U87MG subcutaneous tumor, nude mouse): can inhibit growth of solid tumors
- glioma growth / survival rate, bioluminescence tracking (U87MG tumor; in situ U87-luciferase mice, compared with PBS): delays the growth of glioma
- median survival time (U87MG tumor; mice with U87MG tumor, n=6 per group): 30 days
- IC50 [2]: 11.3 µM
- early (Annexin+/PI−) apoptotic cells (U87 cells): 31.2%
- late (Annexin+/PI+) apoptotic cells (U87 cells): 30.6%
